{"source": "paper PMC6034706", "about": "(ChemMedChem, 2017)", "key": {"[1]": {"system": "O=C(Cc1cccs1)N[C@@H]1C(=O)N2C(C(=O)O)=C(/C=C/c3ccc([N+](=O)[O-])cc3[N+](=O)[O-])CS[C@H]12", "test": "purified protein, by the assay type", "settings": "other: 50 mM potassium phosphate buffer, pH 7.0, room temperature"}, "E. coli": {"system": "E. coli", "test": "Cell viability assay, bacterial growth", "format": "cell-based", "settings": "for relative percentage growth, E. coli, Amox (−): compound alone; for relative percentage growth, E. coli, Amox (−) / relative percentage growth, E. coli, Amox (+): relative to untreated cells; for relative percentage growth, E. coli, Amox (+): with 50 μM amoxicillin; for growth inhibition activity on its own: wild-type E. coli, without amoxicillin"}, "VIM2 expressing E. coli": {"system": "VIM2 expressing E. coli", "format": "cell-based", "settings": "for relative percentage growth, VIM2 expressing E. coli, Amox (−): compound alone; for relative percentage growth, VIM2 expressing E. coli, Amox (−) / relative percentage growth, VIM2 expressing E. coli, Amox (+): relative to untreated cells; for relative percentage growth, VIM2 expressing E. coli, Amox (+): with 50 μM amoxicillin; for growth inhibition activity on its own: VIM2-expressing E. coli, without amoxicillin"}, "VIM2 [2]": {"target": "T1, VIM2 (Escherichia coli, UniProt Q5U7L7)", "format": "biochemical, P. aeruginosa", "settings": "50 μM compound, 5 nM VIM-2, 10 μM nitrocefin, 30 mins"}, "VIM2 [3]": {"target": "T1, VIM2", "test": "biochemical", "format": "biochemical, P. aeruginosa", "settings": "for IC50: 5 nM VIM-2, 10 μM nitrocefin"}, "VIM2 [4]": {"target": "T1, VIM2", "parameters": "species or system P. aeruginosa", "settings": "6 and 12 μM inhibitor, 6 μM VIM-2, ICP-AES"}, "VIM-2 expressing E. coli": {"system": "VIM-2 expressing E. coli", "test": "Half maximal effective concentration", "format": "cell-based", "settings": "in the presence of 50 μM amoxicillin"}, "[5]": {"test": "Plasma stability study, human plasma", "format": "in vitro ADME", "settings": "10 μM, 37 °C, pooled plasma"}, "[6]": {"test": "Plasma stability study, mouse plasma", "format": "in vitro ADME", "settings": "10 μM, 37 °C, pooled plasma"}, "[7]": {"system": "human embryonic kidney HEK 293 cell lines", "settings": "cited from earlier work"}, "all eleven HDACs": {"system": "all eleven HDACs", "settings": "earlier studies ref [10]; cited from earlier work"}, "[8]": {"settings": "competitive-inhibition fit, nitrocefin substrate"}}, "note": "Like-named read-outs stand apart in the source and are kept apart here.", "data": [{"compound": "VIM-2 (Escherichia coli)", "values": [{"measurement": "kcat", "setting": "[1]", "result": 212, "unit": "s⁻¹"}]}, {"compound": "O=C(CCCCCCC(=O)Nc1ccccc1)NO", "note": "[SAHA]", "values": [{"measurement": "relative percentage growth, E. coli, Amox (−)", "setting": "E. coli", "result": 83, "unit": "%"}, {"measurement": "relative percentage growth, E. coli, Amox (+)", "setting": "E. coli", "result": 3.6, "unit": "%"}, {"measurement": "relative percentage growth, VIM2 expressing E. coli, Amox (−)", "setting": "VIM2 expressing E. coli", "result": 79, "unit": "%"}, {"measurement": "relative percentage growth, VIM2 expressing E. coli, Amox (+)", "setting": "VIM2 expressing E. coli", "result": 60, "unit": "%"}]}, {"compound": "C[C@]1(Cn2ccnn2)[C@H](C(=O)O)N2C(=O)C[C@H]2S1(=O)=O", "note": "[Tazobactam]", "values": [{"measurement": "% Inhibition at 50 μM", "setting": "VIM2 [2]", "result": 25, "unit": "%"}]}, {"compound": "CC1(C)S[C@@H]2[C@H](NC(=O)[C@H](N)c3ccc(O)cc3)C(=O)N2[C@H]1C(=O)O", "note": "[Amox, amoxicillin]", "values": [{"measurement": "inhibition at 50 µM", "setting": "E. coli; Escherichia coli, read-out: growth inhibition by amoxicillin alone", "result": "> 96", "unit": "%"}, {"measurement": "relative percentage growth, E. coli, Amox (+)", "setting": "E. coli", "result": 3.6, "unit": "%"}, {"measurement": "relative percentage growth, VIM2 expressing E. coli, Amox (+)", "setting": "VIM2 expressing E. coli", "result": 77, "unit": "%"}, {"measurement": "relative percentage growth, VIM2 expressing E. coli, Amox (+)", "setting": "VIM2 expressing E. coli; listed as amoxicillin", "result": "ineffective"}]}, {"compound": "[Na+].[O-]n1ccccc1=S", "note": "[Compound 2b]", "values": [{"measurement": "% Inhibition at 50 μM", "setting": "VIM2 [2]", "result": 93, "unit": "%"}, {"measurement": "IC50", "setting": "VIM2 [3]", "result": 908, "unit": "nM"}, {"measurement": "Ki", "setting": "VIM2 [3]; [8]", "result": 217, "unit": "nM"}]}, {"compound": "On1ccccc1=S", "note": "[Compound 2, 1-Hydroxypyridine-2-thione]", "values": [{"measurement": "Ki", "setting": "VIM2 [3]", "result": 217, "unit": "nM"}, {"measurement": "growth inhibition activity on its own", "setting": "E. coli", "result": "over 89%"}, {"measurement": "growth inhibition activity on its own", "setting": "VIM2 expressing E. coli", "result": "over 89%"}]}, {"compound": "C[C@H](CS)C(=O)N1CCC[C@H]1C(=O)O", "note": "[L-Captopril]", "values": [{"measurement": "% Inhibition at 50 μM", "setting": "VIM2 [2]", "result": 98, "unit": "%"}, {"measurement": "growth inhibition activity on its own", "setting": "E. coli", "result": "moderate antibacterial activity"}, {"measurement": "growth inhibition activity on its own", "setting": "VIM2 expressing E. coli", "result": "moderate antibacterial activity"}, {"measurement": "metal content of VIM-2 with increasing inhibitor concentration", "setting": "VIM2 [4]", "result": "relatively unaffected"}]}, {"compound": "O=C(O)c1cccc(=S)n1O", "note": "[Compound 3, 1-hydroxypyridine-2(1H)-thiones-6-carboxylic acid]", "values": [{"measurement": "% Inhibition at 50 μM", "setting": "VIM2 [2]", "result": 98, "unit": "%"}, {"measurement": "Ki", "setting": "VIM2 [3]", "result": 0.013, "unit": "nM"}, {"measurement": "IC50", "setting": "VIM2 [3]", "result": 270, "unit": "nM"}, {"measurement": "LE (ligand efficiency)", "setting": "VIM2 [3]; LE = -1.38 log (Ki) / N, N = number of heavy atoms", "result": 0.99}, {"measurement": "Ki", "setting": "VIM2 [3]; [8]", "result": 13, "unit": "nM"}, {"measurement": "relative percentage growth, E. coli, Amox (−)", "setting": "E. coli", "result": 77, "unit": "%"}, {"measurement": "growth inhibition activity on its own", "setting": "E. coli", "result": "moderate antibacterial activity"}, {"measurement": "relative percentage growth, E. coli, Amox (+)", "setting": "E. coli", "result": 3.6, "unit": "%"}, {"measurement": "growth inhibition activity on its own", "setting": "VIM2 expressing E. coli", "result": "moderate antibacterial activity"}, {"measurement": "relative percentage growth, VIM2 expressing E. coli, Amox (−)", "setting": "VIM2 expressing E. coli", "result": 61, "unit": "%"}, {"measurement": "relative percentage growth, VIM2 expressing E. coli, Amox (+)", "setting": "VIM2 expressing E. coli", "result": 3.2, "unit": "%"}, {"measurement": "EC50", "setting": "VIM-2 expressing E. coli", "result": 110, "unit": "nM"}, {"measurement": "Human Plasma t1/2", "setting": "[5]", "result": 11.7, "unit": "min"}, {"measurement": "Mouse Plasma t1/2", "setting": "[6]", "result": 12.7, "unit": "min"}, {"measurement": "CC50", "setting": "[7]", "result": 97400, "unit": "nM"}, {"measurement": "range of selectivity among HDACs", "setting": "all eleven HDACs", "result": "~5000", "unit": "fold"}]}, {"compound": "O=C(O)CN(CCN(CC(=O)O)CC(=O)O)CC(=O)O", "note": "[EDTA]", "values": [{"measurement": "metal content of VIM-2 with increasing inhibitor concentration", "setting": "VIM2 [4]", "result": "inverse relationship"}]}, {"compound": "O=C(O)[C@H]1/C(=C/CO)O[C@@H]2CC(=O)N21", "note": "[Clavulanate]", "values": [{"measurement": "% Inhibition at 50 μM", "setting": "VIM2 [2]", "result": 15, "unit": "%"}, {"measurement": "relative percentage growth, VIM2 expressing E. coli, Amox (+)", "setting": "VIM2 expressing E. coli; listed as clavulanic acid", "result": "ineffective"}]}]}
